Measured values: patent publication US5962487A, “Antipicornaviral compounds and methods for their use and preparation” (Agouron Pharmaceuticals, Inc., priority 1997, dated 1999)

Tests used:
in vitro = assay type: cell-based; details: human, hi-hela cells
Protocol: (§1) HI-HeLa cells were infected with HRV-14 (unless otherwise noted) at a multiplicity of infection (m.o.i.) of 0.13 (virus particles/cell) or mock-infected with medium only. Infected or mock-infected cells were resuspended at 8×10^5 cells per mL and incubated with appropriate concentrations of compounds of formulas I and II. Two days later, XTT/PMS was added to test plates, and the amount of formazan produced was quantified spectrophotometrically at 450/650 nm. The EC50 was calculated as the concentration of compound that increased the percentage of formazan production in compound-treated, virus-infected cells to 50% of that produced by compound-free mock-infected cells. The 50% cytotoxic dose (CC50) was calculated as the concentration of compound that decreased the percentage of formazan produced in compound-treated, mock-infected cells to 50% of that produced in compound-free, mock-infected cells. The therapeutic index (TI) was calculated by dividing the CC50 by the EC50.
(§2) All strains of human rhinovims (HRV) for use in this assay were purchased from American Type Culture Collection (ATCC), except for HRV serotype-14, which was produced from the infectious cDNA clone, constructed and supplied to us by Dr. Roland Rueckert at the Institute for Molecular Virology, University of Wisconsin, Madison, Wis. HRV stocks were propagated, and antiviral assays were performed in HI-HeLa (ATCC). Cells were grown in Minimal Essential Medium, available from Life Technologies, with 10% fetal bovine serum.

[1] = target: T1, Rhinovirus 3C protease (RVP) serotype 16 (Human rhinovirus 16, UniProt Q82122); test: Inhibition of Rhinovirus Protease, serotype 16 (FRET assay); assay type: biochemical; details: enzyme start experiments, read-out: kobs/I
T1 construct: Recombinant Rhinovirus 3C proteases from serotypes 14, 16, 2 or 89 were prepared; made in house
Protocol: (§3) Stock solutions (50 mM, in DMSO) of various compounds were prepared; dilutions were in the same solvent. Recombinant Rhinovirus 3C proteases from serotypes 14, 16, 2 or 89 were prepared by the following standard chromatographic procedures: (1) ion exchange using Q Sepharose Fast Flow from Pharmacia; (2) affinity chromatography using Affi-Gel Blue from Biorad; and (3) sizing using Sephadex G-100 from Pharmacia. Assays contained 2% DMSO, 50 mM tris pH 7.6, 1 mM EDTA, a compound at the indicated concentrations, approximately 1 μM substrate, and 50-100 nM protease. For Ki determinations, the compound and the enzyme were preincubated for 10 minutes at 30° C. prior to addition of the substrate (substrate start). The kobs/I values were obtained from reactions initiated by addition of enzyme rather than substrate. RVP activity is measured in the fluorescence resonance energy transfer assay. The substrate was (N-terminal) DABCYL-(Gly-Arg-Ala-Val-Phe-Gln-Gly-Pro-Val-Gly)-EDANS. In the uncleaved peptide, the EDANS fluorescence was quenched by the proximal DABCYL moiety. When the peptide was cleaved, the quenching was relieved, and activity was measured as an increase in fluorescence signal.
(§4) In the above table, all data is for RVP serotype-14 unless otherwise noted in parentheses. All strains of human rhinovirus (HRV) were purchased from American Type Culture Collection (ATCC), except for serotype 14, which was produced from the infectious cDNA clone constructed and supplied to us by Dr. Roland Rueckert at the Institute for Molecular Virology, University of Wisconsin, Madison, Wis. The column designated INHIB represents the percent inhibition, with the concentration of the compound in μM indicated in parentheses, unless Ki was assigned as designated by (Ki), at 10 minute preincubation with 50 nM RVP prior to addition of substrate was used. The data in the column designated kobs/I was measured from progress curves in enzyme start experiments.

[2] = target: T2, Rhinovirus 3C protease (RVP) serotype-14 (Human rhinovirus 14, UniProt P03303); test: Inhibition of Rhinovirus Protease, serotype 14 (FRET assay); assay type: biochemical; details: for kinact/KI: read-out: kobs/I; for inhibition at 10 µM: 10 μM compound, 10 minute preincubation with 50 nM RVP, read-out: INHIB (percent inhibition)
T2 construct: Recombinant Rhinovirus 3C proteases from serotypes 14, 16, 2 or 89 were prepared; made in house
Protocol: as §3, §4

[3] = target: T3, Rhinovirus 3C protease (RVP) serotype 2 (Human rhinovirus 2, UniProt P04936); test: Inhibition of Rhinovirus Protease, serotype 2 (FRET assay); assay type: biochemical; details: enzyme start experiments, read-out: kobs/I
T3 construct: Recombinant Rhinovirus 3C proteases from serotypes 14, 16, 2 or 89 were prepared; made in house
Protocol: as §3, §4

HRV-14 = test: Antirhinoviral HI-HeLa Cell Culture Assay (cell protection, XTT), HRV-14; assay type: cell-based, human rhinovirus; details: for EC50: Rhinovirus B, HRV14, 48 h, HRV serotype-14 infected HI-HeLa cells, XTT, two days; for TI: CC50/EC50, HRV serotype-14, 2880 min
Protocol: In the Cell Protection Assay, the ability of compounds to protect cells against HRV infection was measured by the XTT dye reduction method. This method is described in O. S. Weislow, R. Kiser, D. L. Fine, J. Bader, R. H. Shoemaker, and M. R. Boyd, J. Natl. Cancer Inst. 1989, 81, 577-586, which document is entirely incorporated herein by reference.
as §1, §2
The compounds were tested against control compounds WIN 51711, WIN 52084, and WIN 54954, all obtained from Sterling-Winthrop Pharmaceuticals, and control compound Pirodavir, obtained from Janssen Pharmaceuticals. Antiviral data obtained for the test compounds are shown in Table 2 where all data are for HRV serotype-14 unless otherwise noted in parentheses.

T2 sequence (P03303 1538-1719): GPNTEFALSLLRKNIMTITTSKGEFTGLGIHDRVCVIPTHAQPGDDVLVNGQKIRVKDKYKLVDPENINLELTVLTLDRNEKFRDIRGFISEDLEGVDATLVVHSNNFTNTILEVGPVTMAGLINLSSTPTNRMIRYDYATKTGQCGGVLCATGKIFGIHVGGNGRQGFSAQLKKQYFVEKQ
T1 sequence (Q82122 1511-1693): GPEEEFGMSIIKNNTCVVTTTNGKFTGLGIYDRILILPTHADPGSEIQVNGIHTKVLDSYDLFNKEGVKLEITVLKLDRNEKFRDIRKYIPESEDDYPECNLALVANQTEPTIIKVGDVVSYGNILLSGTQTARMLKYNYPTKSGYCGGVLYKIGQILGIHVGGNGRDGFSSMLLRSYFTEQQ
T3 sequence (P04936 1508-1690): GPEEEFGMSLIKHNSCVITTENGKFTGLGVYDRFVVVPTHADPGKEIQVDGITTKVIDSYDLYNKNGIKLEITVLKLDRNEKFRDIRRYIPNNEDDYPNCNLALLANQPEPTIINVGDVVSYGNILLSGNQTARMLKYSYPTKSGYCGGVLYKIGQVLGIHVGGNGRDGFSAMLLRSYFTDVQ

SMILES	CC50 at 48 h (in vitro) [µM]	kinact/KI [1] [M⁻¹ s⁻¹]	kinact/KI [2] [M⁻¹ s⁻¹]	kinact/KI [3] [M⁻¹ s⁻¹]	EC50 (HRV-14) [µM]	Ki ([2]; RVP serotype-14, 10 minute preincubation with 50 nM RVP prior to addition of substrate, read-out: INHIB (Ki)) [µM]	TI (HRV-14)	inhibition at 10 µM ([2]; RVP serotype-14) [%]
CCOC(=O)/C=C/[C@H](CCC(N)=O)NC(=O)C1CNCCN1C(=O)[C@H](CC(C)C)NC(=O)OCc1ccccc1 (mixture of isomers) [Compound 27, Ethyl-3-(CBZ-L-Leu-DL-Pipz-L-Gln)-E-Propenoate]	> 320	90	102	87	> 320	–	–	–
CCOC(=O)/C=C/[C@H](CCC(N)=O)NC(=O)[C@H](Cc1ccc(OC)cc1)N(C)C(=O)[C@H](CC(C)C)NC(=O)OCc1ccccc1 [Compound 3, Ethyl-3-[CBZ-L-Leu-L-N-Me-(OMe)-Tyr-L-Gln]-E-Propenoate]	41.7	929	16600	292	0.18	12	232	–
CCOC(=O)/C(C)=C/[C@H](CCC(N)=O)NC(=O)[C@H](Cc1ccccc1)N(C)C(=O)[C@H](CSc1ccccc1)NC(=O)SC1CCCC1 [Compound 47]	18	–	6500	–	1.3	–	14	–
CCOC(=O)/C=C/[C@H](CCC(N)=O)NC(=O)[C@H](Cc1ccc(C)cc1)N(C)C(=O)[C@@H](NC(=O)SC1CCCC1)C(C)(C)C [Compound 48]	> 10	–	14000	–	0.5	–	> 20	–
CCOC(=O)/C(C)=C/[C@H](CCC(N)=O)NC(=O)[C@H](Cc1ccc(C)cc1)N(C)C(=O)[C@@H](NC(=O)SC1CCCC1)C(C)(C)C [Compound 49]	71	–	1910	–	0.1	–	710	–
CCOC(=O)/C=C/C(CCC(N)=O)NC(=O)[C@@H]1CCc2ncc(N(C(=O)SC3CCCC3)C(=O)SC3CCCC3)c(=O)n21 (stereo partly drawn) [Compound 50]	> 100	–	14000	–	3.2	–	> 31	–
CCOC(=O)/C=C/C(CCC(N)=O)NC(=O)[C@@H]1CCc2ncc(NC(=O)SC3CCCC3)c(=O)n21 (stereo partly drawn) [Compound 51]	> 100	–	43900	–	12.6	–	> 8	–
CCOC(=O)/C=C/C(CCC(N)=O)NC(=O)[C@@H]1CCc2ncc(NC(=O)SCC)c(=O)n21 (stereo partly drawn) [Compound 52]	> 100	–	31100	–	32	–	> 3	–
CCOC(=O)/C=C/C(CCC(N)=O)NC(=O)[C@H](Cc1ccccc1)N1CC[C@H](NC(=O)OCc2ccccc2)C1=O (stereo partly drawn) [Compound 53]	> 100	–	242	–	4.5	–	> 22	–
CCOC(=O)/C=C/C(CCC(N)=O)NC(=O)[C@H](Cc1ccccc1)N1CC[C@@H](NC(=O)SC2CCCCC2)C1=O (stereo partly drawn) [Compound 54]	> 100	–	–	–	17.8	–	> 6	55
CCOC(=O)/C=C/C(CCC(N)=O)NC(=O)[C@H](Cc1ccccc1)N1CC[C@@H](NC(=O)OCc2ccccc2)C1=O (stereo partly drawn) [Compound 55]	> 100	–	–	–	50	–	> 2	20
CC(C)C[C@H](NC(=O)SC1CCCC1)C(=O)N(C)[C@@H](Cc1ccccc1)C(=O)N[C@H](/C=C/C(=O)OCc1ccccc1)CCC(N)=O [Compound 56]	20	–	15400	–	1.6	–	13	–
CCCOC(=O)/C=C/[C@H](CCC(N)=O)NC(=O)[C@H](Cc1ccccc1)N(C)C(=O)[C@H](CC(C)C)NC(=O)SC1CCCC1 [Compound 57]	50	–	13500	–	0.56	–	89	–
COCCOC(=O)/C=C/[C@H](CCC(N)=O)NC(=O)[C@H](Cc1ccccc1)N(C)C(=O)[C@H](CC(C)C)NC(=O)SC1CCCC1 [Compound 58]	63	–	24300	–	0.56	–	113	–
